Measured values published in ChEMBL document CHEMBL1158636, “Discovery of a novel sulfonamide-pyrazolopiperidine series as potent and efficacious gamma-secretase inhibitors (Part II)” (Bioorg Med Chem Lett, 2010).

How the values were obtained:
Mus musculus = assay: Neuroprotective activity in wild type FVB mouse brain assessed as reduction of amyloid beta 40 level at 1 mg/kg, po after 3 hrs; format: functional; parameters: scale not given: the % may be the effect or the level left
[1] = Inhibition of gamma-secretase-mediated APP cleavage assessed as amyloid beta40 level after 2 hrs by ELISA
[2] = target: Gamma-secretase (Homo sapiens) (UniProt Q96BI3+Q9NZ42+Q8WW43+P49768+Q92542+P49810); assay: Inhibition of gamma-secretase-mediated APP cleavage in human SNC cells by ELISA; format: cell-based
Gamma-secretase = assay: Inhibition of gamma-secretase-mediated notch cleavage in human SNC cells by ELISA; format: cell-based
[3] = Inhibition of gamma-secretase-mediated notch cleavage after 2 hrs by ELISA
[4] = (§1) Oxidative metabolic stability in human liver microsomes assessed as compound remaining at 2 uM after 30 mins in presence of 1 mM UDPGA; format: ADME, Microsome; conditions: liver microsomes, read-out: Stability
[5] = (§2) Oxidative metabolic stability in human liver microsomes assessed as compound remaining at 1 uM after 30 mins in presence of 1 mM NADPH; format: ADME, Microsome; conditions: liver microsomes, read-out: Stability
Liver microsomes [6] = assay: as §1; format: ADME, Microsome; conditions: microsomes, 0.5 h, 2 µM
Liver microsomes [7] = assay: as §2; format: ADME, Microsome; conditions: microsomes, 0.5 h, 1 µM

IC50 [1]	ED50 [2]	IC50 (Gamma-secretase)	IC50 [3]	remaining at 0.5 h, 2 µM [4]	remaining at 0.5 h, 1 µM [5]	Stability (Liver microsomes [6])	Stability (Liver microsomes [7])	SMILES	Activity (Mus musculus)
0.6 nM	2 nM	138 nM	23 nM	75%	80%	–	–	O=S(=O)(c1ccc(C(F)(F)F)nc1)N1[C@@H](C2CC2)c2cn[nH]c2C(F)(F)[C@H]1C1CC1 (stereo in doubt)	20%
0.1 nM	0.2 nM	13 nM	3 nM	41%	43%	–	–	O=S(=O)(c1ccc(C(F)(F)F)nc1)N1[C@H](C2CC2)c2cn[nH]c2C(F)(F)[C@H]1C1CC1 (stereo in doubt)	–
3 nM	374 nM	25100 nM	66 nM	87%	21%	–	–	O=C1c2[nH]ncc2[C@@H](C2CC2)N(S(=O)(=O)c2ccc(C(F)(F)F)nc2)[C@@H]1C1CC1 (relative stereo)	–
1.2 nM	6 nM	358 nM	20 nM	59%	79%	–	–	C[C@@H]1N(S(=O)(=O)c2ccc(C(F)(F)F)nc2)[C@H](C2CC2)c2cn[nH]c2C1(F)F (relative stereo)	–
0.3 nM	0.5 nM	34 nM	3 nM	61%	53%	–	–	O=S(=O)(c1ccc(C(F)(F)F)nc1)N1[C@@H](C2CC2)c2cn[nH]c2C(F)(F)[C@@H]1C1CC1 (stereo in doubt)	–
0.2 nM	–	50 nM	2 nM	89%	–	–	61%	O=S(=O)(c1ccc(C(F)(F)F)nc1)N1C(C2CC2)c2cn[nH]c2C(F)(F)C12CC2 (racemic) [4'-CYCLOPROPYL-7',7'-DIFLUORO-5'-(6-(TRIFLUOROMETHYL)PYRIDIN-3-YLSULFONYL)-1',4',5',7'-TETRAHYDRO SPIRO[CYCLOPROPANE-1,6'-PYRAZOLO[4,3-C]PYRIDINE] (ENANTIOMERIC MIX)]	–
1.5 nM	6 nM	771 nM	42 nM	64%	76%	–	–	O=S(=O)(c1ccc(C(F)(F)F)cc1)N1C(C2CC2)c2cn[nH]c2C(F)(F)C1C1CC1 (centres undefined)	–
0.8 nM	3 nM	304 nM	47 nM	67%	71%	–	–	O=S(=O)(c1ccc(C(F)(F)F)nc1)N1[C@@H](C2CC2)C(F)(F)c2[nH]ncc2[C@H]1C1CC1 (stereo in doubt)	–
0.3 nM	130 nM	6700 nM	10 nM	75%	77%	–	–	O=C1c2[nH]ncc2[C@@H](C2CC2)N(S(=O)(=O)c2ccc(C(F)(F)F)nc2)[C@H]1C1CC1 (relative stereo)	–
–	–	25 nM	1 nM	–	–	85%	85%	O=S(=O)(c1ccc(C(F)(F)F)nc1)N1C(C2CC2)c2cn[nH]c2C(F)(F)C12CC2 (stereo in doubt; 17b) [4'-CYCLOPROPYL-7',7'-DIFLUORO-5'-(6-(TRIFLUOROMETHYL)PYRIDIN-3-YLSULFONYL)-1',4',5',7'-TETRAHYDRO SPIRO[CYCLOPROPANE-1,6'-PYRAZOLO[4,3-C]PYRIDINE] (ENANTIOMERIC MIX)]	–

The next lines start with the compound.

SMILES	IC50 [1]	ED50 [2]	IC50 (Gamma-secretase)	IC50 [3]	remaining at 0.5 h, 2 µM [4]	remaining at 0.5 h, 1 µM [5]	Stability (Liver microsomes [6])	Stability (Liver microsomes [7])	Activity (Mus musculus)
O=S(=O)(c1ccc(C(F)(F)F)nc1)N1C(C2CC2)c2cn[nH]c2C(F)(F)C12CC2 (stereo in doubt; 17c) [4'-CYCLOPROPYL-7',7'-DIFLUORO-5'-(6-(TRIFLUOROMETHYL)PYRIDIN-3-YLSULFONYL)-1',4',5',7'-TETRAHYDRO SPIRO[CYCLOPROPANE-1,6'-PYRAZOLO[4,3-C]PYRIDINE] (ENANTIOMERIC MIX)]	56 nM	–	9280 nM	221 nM	–	–	100%	72%	–
O=C1c2[nH]ncc2C(C2CC2)N(S(=O)(=O)c2ccc(C(F)(F)F)cn2)C12CC2 (stereo in doubt; 16i) [4'-CYCLOPROPYL-5'-(5-(TRIFLUORO METHYL)PYRIDIN-2-YL SULFONYL)-4',5'-DIHYDROSPIRO[CYCLOPROPANE-1,6'-PYRAZOLO[4,3-C]PYRIDIN]-7'(1'H)-ONE (ENANTIOMERIC MIX)]	9.6 nM	–	2290 nM	223 nM	–	–	96%	82%	–
O=C1c2[nH]ncc2C(C2CC2)N(S(=O)(=O)c2ccc(C(F)(F)F)cc2)C1C1CC1 (racemic)	0.4 nM	21 nM	2790 nM	21 nM	76%	67%	–	–	–
CC(C)C1c2cn[nH]c2C(F)(F)CN1S(=O)(=O)c1ccc(Cl)cc1 (racemic)	0.7 nM	11 nM	574 nM	12 nM	42%	2%	–	–	–
CC1C(=O)c2[nH]ncc2C(C)N1S(=O)(=O)c1ccc(C(F)(F)F)cc1 (centres undefined)	6.8 nM	5110 nM	> 40000 nM	89 nM	77%	63%	–	–	–
C[C@@H]1c2cn[nH]c2C(=O)[C@H](C)N1S(=O)(=O)c1ccc(C(F)(F)F)nc1 (stereo in doubt)	13.2 nM	1100 nM	18300 nM	144 nM	91%	67%	–	–	–
O=C1CN(S(=O)(=O)c2ccc(C(F)(F)F)cc2)C(C(F)(F)F)c2cn[nH]c21 (centres undefined)	2.6 nM	> 10000 nM	> 40000 nM	51 nM	6%	1%	–	–	–
O=S(=O)(c1ccc(C(F)(F)F)cc1)N1CC(F)(F)c2[nH]ncc2C1C(F)(F)F (racemic)	0.9 nM	4 nM	403 nM	10 nM	35%	84%	–	–	–
CC(C)(C)C1C(=O)c2[nH]ncc2C(C2CC2)N1S(=O)(=O)c1ccc(C(F)(F)F)nc1 (stereo in doubt; 3u) [6-TERT-BUTYL-4-CYCLOPROPYL-5-(6-(TRIFLUOROMETHYL)PYRIDIN-3-YLSULFONYL)-5,6-DIHYDRO-1H-PYRAZOLO[4,3-C]PYRIDIN-7(4H)-ONE (STRUCTURAL MIX)]	4.8 nM	–	1640 nM	107 nM	–	–	–	12%	–
O=C1c2[nH]ncc2C(C2CC2)N(S(=O)(=O)c2ccc(C(F)(F)F)nc2)C12CC2 (stereo in doubt; 16e) [4'-CYCLO PROPYL-5'-(6-(TRIFLUORO METHYL)PYRIDIN-3-YL SULFONYL)-4',5'-DIHYDROSPIRO[CYCLOPROPANE-1,6'-PYRAZOLO[4,3-C]PYRIDIN]-7'(1'H)-ONE (ENANTIOMERIC MIX)]	1070 nM	–	> 40000 nM	–	–	–	88%	83%	–
O=C1c2[nH]ncc2C(C2CC2)N(S(=O)(=O)c2ccc(C(F)(F)F)nc2)C12CC2 (stereo in doubt; 16f) [4'-CYCLO PROPYL-5'-(6-(TRIFLUORO METHYL)PYRIDIN-3-YL SULFONYL)-4',5'-DIHYDROSPIRO[CYCLOPROPANE-1,6'-PYRAZOLO[4,3-C]PYRIDIN]-7'(1'H)-ONE (ENANTIOMERIC MIX)]	1.4 nM	–	250 nM	15 nM	–	–	94%	–	27%
CC[C@@H]1c2cn[nH]c2C(=O)[C@H](CC)N1S(=O)(=O)c1ccc(C(F)(F)F)nc1 (relative stereo)	0.8 nM	21 nM	2360 nM	36 nM	83%	57%	–	–	–
CC1(C)C(=O)c2[nH]ncc2C(C2CC2)N1S(=O)(=O)c1ccc(C(F)(F)F)cc1 (racemic)	7.3 nM	60 nM	2660 nM	268 nM	67%	68%	–	–	–
O=C1c2[nH]ncc2C(C2CC2)N(S(=O)(=O)c2ccc(C(F)(F)F)cn2)C12CC2 (stereo in doubt; 16h) [4'-CYCLOPROPYL-5'-(5-(TRIFLUORO METHYL)PYRIDIN-2-YL SULFONYL)-4',5'-DIHYDROSPIRO[CYCLOPROPANE-1,6'-PYRAZOLO[4,3-C]PYRIDIN]-7'(1'H)-ONE (ENANTIOMERIC MIX)]	897 nM	–	> 40000 nM	8280 nM	–	–	–	80%	–
CC(C)[C@@H]1c2cn[nH]c2C(=O)CN1S(=O)(=O)c1ccc(Cl)cc1	3.7 nM	4000 nM	> 40000 nM	91 nM	71%	12%	–	–	–
